Source: PubChem BioAssay (NCI)
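Compound exposure: 48 hours, 5 concentrations, 96-well plates. Definition used: TGI = concentration required for complete inhibition of growth.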

Assays:
Experiment in all cases: NCI tumour cell line growth inhibition, 48 h
LXFL 529 NSCLC = test system: LXFL 529 NSCLC
DU-145 prostate = test system: DU-145 prostate
SNB-78 CNS = test system: SNB-78 CNS
DMS 114 small cell lung = test system: DMS 114 small cell lung
MDA-MB-231 breast = test system: MDA-MB-231 breast
DMS 273 small cell lung = test system: DMS 273 small cell lung
PC-3 prostate = test system: PC-3 prostate
DLD-1 colon = test system: DLD-1 colon
XF 498 CNS = test system: XF 498 CNS

Row | SMILES | TGI (LXFL 529 NSCLC) [µM] | TGI (DU-145 prostate) [µM] | TGI (SNB-78 CNS) [µM] | TGI (DMS 114 small cell lung) [µM] | TGI (MDA-MB-231 breast) [µM] | TGI (DMS 273 small cell lung) [µM] | TGI (PC-3 prostate) [µM] | TGI (DLD-1 colon) [µM] | TGI (XF 498 CNS) [µM]
1 | CCCCC1N=CNc2c1ccc1c2[nH]c2ccccc21 (centres undefined) | 3.78 | 5.72 | 38.6 | 4.06 | 3.3 | 3.38 | 3.23 | 6.3 | 3.4
2 | O=C(O)CCCc1cc2c(s1)-c1cccc3cccc-2c13 | > 100 | – | 94.9 | – | – | > 100 | – | > 100 | > 100
3 | COC(=O)C1=Cc2cn(S(=O)(=O)c3ccc(C)cc3)c3cccc(c23)C(C=C(C)C)N1C(C)=O (centres undefined) | > 100 | – | > 100 | > 100 | – | > 100 | – | > 100 | > 100
4 | Cc1cc(C)c(C2=NO[C@@H]3C(=O)N(c4ccc(Cc5ccc(N6C(=O)[C@H]7C(c8c(C)cc(C)cc8C)=NO[C@H]7C6=O)cc5)cc4)C(=O)[C@H]23)c(C)c1 | > 100 | – | > 100 | > 100 | – | > 100 | – | > 100 | > 100
5 | C=CNC(=S)n1nc(-c2ccccc2NC(=O)C(F)(F)F)c(=O)n(C(=S)NC=C)c1=S | > 100 | – | > 100 | 28.9 | – | > 100 | – | 49.3 | 83
6 | O=C(CC1(O)C(=O)Nc2ccc([N+](=O)[O-])cc21)c1ccc(Br)cc1 (centres undefined) | > 100 | – | > 100 | > 100 | – | – | – | > 100 | > 100
7 | O=[P+](O)c1cccnc1 | > 100 | – | > 100 | > 100 | – | > 100 | – | > 100 | > 100
8 | CC(C)OC(=O)c1cccnc1/C=N/O | > 100 | – | > 100 | > 100 | – | > 100 | – | > 100 | > 100
9 | O=c1sc(-c2nc3ccccc3[nH]2)c(/N=C/c2ccccc2)n1-c1ccccc1 | > 100 | – | > 100 | – | – | > 100 | – | > 100 | 54.7
10 | CN(CCCCN)c1ccc2c(=O)[nH][nH]c(=O)c2c1 | > 100 | – | > 100 | > 100 | – | > 100 | – | > 100 | > 100
11 | N/C(=N/N=C/c1cccc(F)c1)NO | > 100 | – | > 100 | 84.7 | – | > 100 | – | > 100 | > 100
12 | O=Cc1cn(S(=O)(=O)c2ccccc2)c2ccccc12 | > 100 | – | > 100 | 62.9 | – | – | – | > 100 | > 100
13 | COc1cc([C@@H]2c3cc4c(cc3[C@@H](NC(=O)c3ccc(OC(C)=O)cc3)C3COC(=O)[C@@H]32)OCO4)cc(OC)c1O (some centres undefined) | 44.2 | – | > 100 | 5.38 | – | 12.4 | – | 26 | 6.96
14 | c1ccc(N2N=NC3C4CC(C5c6ccccc6C45)C32)cc1 (centres undefined) | > 100 | – | > 100 | 47.5 | – | > 100 | – | > 100 | 38.5
15 | C/C(CC(=O)Nc1cccc(C)c1C)=N\NC(N)=S | > 100 | – | > 100 | > 100 | – | > 100 | – | > 100 | > 100
16 | CC(O)c1ccc(C(O)/C(=N\NC(=O)c2ccncc2)c2nc3ccc([N+](=O)[O-])cc3[nH]c2=O)cc1 (centres undefined) | > 100 | – | > 100 | 98.2 | – | > 100 | – | > 100 | > 100
17 | COC(=O)c1cc2c(nc1C)-c1ccccc1OS2(=O)=O | > 100 | – | > 100 | > 100 | – | > 100 | – | > 100 | > 100
18 | COc1ccc(NC(=O)C2=CC(=O)c3ccc(O)cc3C2=O)c(OC)c1 | > 100 | – | > 100 | > 100 | – | – | – | > 100 | > 100
19 | C=CCn1c(=O)c(C(=O)NC(=O)OCC)cn(C2CCCCC2)c1=O | > 100 | – | > 100 | > 100 | – | > 100 | – | > 100 | > 100
20 | CCOC(=O)CP(=S)(S)c1ccccc1 (centres undefined) | > 100 | – | > 100 | > 100 | – | > 100 | – | > 100 | > 100
21 | O=C1NC(Cc2ccccc2)C(=O)N2CCCC12 (centres undefined) | > 100 | – | > 100 | > 100 | – | > 100 | – | > 100 | > 100
